The source of these data is US20230365563A1, “QUINAZOLINE COMPOUND AND APPLICATION THEREOF” (SHANGHAI PHARMACEUTICALS HOLDING CO., LTD., priority 2020, published 2023).

Structures are written as SMILES. Counter-ions that a name gives are not always drawn.

T1 sequence (P01116 1-188 isoform P01116-2 G12D): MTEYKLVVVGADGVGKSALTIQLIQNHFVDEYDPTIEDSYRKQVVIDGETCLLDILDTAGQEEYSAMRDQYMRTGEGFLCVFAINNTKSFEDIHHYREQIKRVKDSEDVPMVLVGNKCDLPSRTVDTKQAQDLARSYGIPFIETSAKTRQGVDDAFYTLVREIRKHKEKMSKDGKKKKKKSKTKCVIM

This test has as its target T1, KRAS-G12D and SOS1 (Homo sapiens, UniProt P01116, G12D).
T1 construct: purchased
The test can be described thus: Inhibition of KRAS-G12D/SOS1 binding (Cisbio binding kit, 665/615 ratio), Effect Embodiment A. As to conditions: read-out: GTP-KRAS-G12D:SOS1 IC50. The method, boiled down: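 Duplicate wells received an eleven-point, threefold compound titration whose top point was the stock solution; final DMSO 1%.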
With `CCc1c(F)ccc2cccc(-c3c(F)cc4c(N5CC6CCC(C5)N6)nc(OC[C@@]56CCCN5C[C@H](F)C6)nc4c3F)c12` (single isomer, unassigned) [Compound 280b, 4-((1R,5S)-3,8-diazacyclo[3.2.1]octan-3-yl)-7-((R or S)-8-ethyl-7-fluoronaphthalen-1-yl)-6,8-difluoro-2-((2R,7aS)-2-fluorotetrahydro-1H-pyrrolidin-7a(5H)-yl)methoxy)quinazoline dihydrochloride], the IC50 came out at 310 nM. To `CCCN(C)CCCOc1nc(N2CC3CCC(C2)N3)c2cc(Cl)c(-c3cc(O)cc4ccccc34)c(F)c2n1` (single isomer, unassigned) [Compound 51b, 4-((R or S)-4-((1R,5S)-3,8-diazabicyclo[3.2.1]octan-3-yl)-6-chloro-8-fluoro-2-(3-(methyl(propyl)amino)propoxy)quinazolin-7-yl)naphthalen-2-ol] belongs 50800 nM; to `C[C@H]1CCCN1CCCOc1nc(N2CC3CCC(C2)N3)c2cc(Cl)c(-c3cc(O)cc4ccccc34)c(F)c2n1` (single isomer, unassigned) [Compound 108b, 4-((S or R)-4-((1R,5S)-3,8-diazabicyclo[3.2.1]octan-3-yl)-6-chloro-8-fluoro-2-(3-((S)-2-methylpyrrolidin-1-yl)propoxy)quinazolin-7-yl)naphthalen-2-ol dihydrochloride], 108 nM; to `Cc1ccc2[nH]ncc2c1-c1c(Cl)cc2c(N3CC4CCC(C3)N4)nc(OC[C@@H]3CCCN3C)nc2c1F` (single isomer, unassigned) [Compound 90a, 4-((1R,5S)-3,8-diazabicyclo[3.2.1]octan-3-yl)-6-chloro-8-fluoro-7-((R or S)-5-methyl-1H-indazol-4-yl)-2-((S)-1-methylpyrrolidin-2-yl)methoxy)quinazoline hydrochloride], 263 nM. For `CN(C)C1CN(c2nc(N3CC4(CCNC4)C3)c3cc(Cl)c(-c4cc(O)cc5ccccc45)c(F)c3n2)C1` (single isomer, unassigned) [Compound 8b, (S or R)-4-(6-chloro-2-(3-(dimethylamino)azetidin-1-yl)-8-fluoro-4-(2,6-diazaspiro[3.4]octan-2-yl)quinazolin-7-yl)naphthalen-2-ol] the value was 71000 nM; for `CN1CCC[C@H]1COc1nc(N2CC3NC(C2)C2CC32)c2cnc(-c3cc(O)cc4ccccc34)c(F)c2n1` (stereo partly drawn) [Compound 158, 4-(8-Fluoro-2-((S)-1-methylpyrrolidin-2-yl)methoxy)-4-((1R,2R,4S,5S)-7,9-diazatricyclo[3.3.1.0^2,4]nonan-7-yl)pyridinyl[4,3-d]pyrimidin-7-yl)naphthalen-2-ol diformate], 199 nM.

Take `CN(C)C1CN(c2nc(N3CC(N(C)C)C3)c3cc(Cl)c(-c4cc(O)cc5ccccc45)c(F)c3n2)C1` (single isomer, unassigned) [Compound 9a, (R or S)-4-(6-chloro-2,4-bis(3-(dimethylamino)azetidin-1-yl)-8-fluoro-7-yl)naphthalen-2-ol]: the IC50 is 81600 nM.

As for `CN(C)C1CN(c2nc(N3CC(C(=N)N)C3)c3cc(Cl)c(-c4cc(O)cc5ccccc45)c(F)c3n2)C1` [Compound 77, (S)-1-(6-chloro-2-(3-(dimethylamino)azetidin-1-yl)-8-fluoro-7-(3-hydroxynaphthalen-1-yl)quinazolin-4-yl)azetidine-3-carboximidamide], the IC50 was found to be 1040 nM. To `CN1CCCC[C@H]1COc1nc(N2CC3CCC(C2)N3)c2cc(Cl)c(-c3cc(O)cc4ccccc34)c(F)c2n1` (single isomer, unassigned) [Compound 56b, 4-((R or S)-4-((1R,5S)-3,8-diazabicyclo[3.2.1]octan-3-yl)-6-chloro-8-fluoro-2-((S)-1-methylpiperidin-2-yl)methoxy)quinazolin-7-yl)naphthalen-2-ol dihydrochloride] belongs 15700 nM; to `CN(C)C1CN(c2nc(N3C[C@@H]4CC[C@H]3CN4)c3cc(Cl)c(-c4cc(O)cc5ccccc45)c(F)c3n2)C1` (single isomer, unassigned) [Compound 4b, (S or R)-4-(4-((1S,4S)-2,5-diazabicyclo [2.2.2]octan-2-yl)-6-chloro-2-(3-(dimethylamino)azetidin-1-yl)-8-fluoro-quinazolin-7-yl)naphthalen-2-ol], 4590 nM. For `Oc1cc(-c2c(Cl)cc3c(N4CC5CCC(C4)N5)nc(OCCCN4CCC4)nc3c2F)c2ccccc2c1` (single isomer, unassigned) [Compound 59b, 4-((R or S)-2-(3-(azetidin-1-yl)propoxy)-4-((1R,5S)-3,8-diazabicyclo[3.2.1]octan-3-yl)-6-chloro-8-fluoroquinazolin-7-yl)naphthalen-2-ol] the value was 5980 nM.

On to `Oc1cc(-c2ncc3c(N4C[C@H]5CC[C@@H](C4)N5)nc(Oc4ccncc4)nc3c2F)c2ccccc2c1` [Compound 130, 4-(4-((1R,5S)-3,8-diazabicyclo[3.2.1]octan-3-yl)-8-fluoro-2-(pyridinyl-4-oxy)pyridyl[4,3-d]pyrimidin-7-yl)naphthalen-2-ol hydrochloride], for which the IC50 stood at 842 nM. To `O=S1(=O)CC2CCC(C1)N2CCCOc1nc(N2CC3CCC(C2)N3)c2cc(Cl)c(-c3cc(O)cc4ccccc34)c(F)c2n1` (single isomer, unassigned) [Compound 212, 8-(3-((S or R)-4-((1R,5S)-3,8-diazabicyclo[3.2.1]octan-3-yl)-6-chloro-8-fluoro-7-(3-hydroxynaphthalen-1-yl)quinazolin-2-yl)oxy)propyl)-3-thio-8-azabicyclo[3.2.1]octane-3,3-dioxide formate] belongs 556 nM; to `CCc1cccc2cc(O)cc(-c3c(F)cc4c(N5CC6CCC(C5)N6)nc(OC[C@@]56CCCN5C[C@H](F)C6)nc4c3F)c12` (single isomer, unassigned) [Compound 285b, (R or S)-4-(4-((1R,5S)-3,8-diazacyclo[3.2.1]octan-3-yl)-6,8-difluoro-2-((2R,7aS)-2-fluorotetrahydro-1H-pyrrolidin-7a(5H-yl)methoxy)quinazolin-7-yl)-5-ethylnaphthalen-2-ol dihydrochloride], 1460 nM. For `Oc1cc(-c2c(Cl)cc3c(N4CC5CCC(C4)N5)nc(OCCCN4CCOCC4)nc3c2F)c2ccccc2c1` (single isomer, unassigned) [Compound 54b, 4-((R or S)-4-((1R,5S)-3,8-diazabicyclo[3.2.1]octan-3-yl)-6-chloro-8-fluoro-2-(3-morpholinopropoxy)quinazolin-7-yl)naphthalen-2-ol dihydrochloride] the value was 22100 nM; for `CN(C)C1CN(c2nc(N=S3(=O)CCC(N)CC3)c3cc(Cl)c(-c4cc(O)cc5ccccc45)c(F)c3n2)C1` (single isomer, unassigned) [Compound 72d, (4S or R)-4-amino-1-(((S or R)-6-chloro-2-(3-(dimethylamino)azetidin-1-yl)-8-fluoro-7-(3-hydroxynaphthalen-1-yl)quinazolin-4-yl)imino)hexahydro-1-thiopyran 1-oxide], 176000 nM.

As for `CN1CCC[C@H]1COc1nc(N2CCN[C@@H](CC#N)C2)c2cc(Cl)c(-c3cc(O)cc4ccccc34)c(F)c2n1` (single isomer, unassigned) [Compound 153a, 2-((S)-4-((S or R)-6-chloro-8-fluoro-7-(3-hydroxynaphthalen-1-yl)-2-((S)-1-methylpyrrolidin-2-yl)methoxy)quinazolin-4-yl)piperazin-2-yl)acetonitrile], the IC50 is 965 nM. For `CCc1cccc2cccc(-c3c(F)cc4c(N5CC6CCC(C5)N6)nc(OC[C@@]56CCCN5C[C@H](F)C6)nc4c3F)c12` (single isomer, unassigned) [Compound 281b, (R or S)-4-((1R,5S)-3,8-diazacyclo[3.2.1]octan-3-yl)-7-(8-ethylnaphthalen-1-yl)-6,8-difluoro-2-((2R,7aS)-2-fluorotetrahydro-1H-pyrrolin-7a(5H)-yl)methoxy)quinazoline dihydrochloride], the IC50 turned out to be 449 nM. On to `CN(C)C1CN(c2nc(N3CC4CCC(C3)N4C)c3cc(Cl)c(-c4cc(O)cc5ccccc45)c(F)c3n2)C1` (single isomer, unassigned) [Compound 86, 4-((S or R)-6-chloro-2-(3-(dimethylamino)azetidin-1-yl)-8-fluoro-4-((1R,5S)-8-methyl)-3,8-diazabicyclo[3.2.1]octan-3-yl)quinazolin-7-yl)naphthalen-2-ol], for which the IC50 came out at 3570 nM. Take `CN(C)C1CN(c2nc(C3(C(N)=O)CNC3)c3cc(Cl)c(-c4cc(O)cc5ccccc45)c(F)c3n2)C1` (single isomer, unassigned) [Compound 22b, (R or S)-3-(6-chloro-2-(3-(dimethylamino)azetidin-1-yl)-8-fluoro-7-(3-hydroxynaphthalen-1-yl)quinazolin-4-yl)azetidin-3-carboxamide bistrifluoroacetate]: the IC50 came to 2420 nM.

For the compound `CN(C)C1CN(c2nc(N=S3(=O)CCC(N)CC3)c3cc(Cl)c(-c4cc(O)cc5ccccc45)c(F)c3n2)C1` (single isomer, unassigned) [Compound 72c, (4S or R)-4-amino-1-(((R or S)-6-chloro-2-(3-(dimethylamino)azetidin-1-yl)-8-fluoro-7-(3-hydroxynaphthalen-1-yl)quinazolin-4-yl)imino)hexahydro-1-thiopyran 1-oxide], the IC50 was > 200000 nM. To `CN1CCC[C@H]1COc1nc(N2CC3CCC(C2)N3)c2cc(Cl)c(-c3c(F)c(O)cc4ccccc34)c(F)c2n1` (single isomer, unassigned) [Compound 195a, (R or S)-4-(4-((1R,5S)-3,8-diazabicyclo[3.2.1]octan-3-yl)-6-chloro-8-fluoro-2-((S)-1-methylpyrrolidin-2-yl)methoxy)quinazolin-7-yl)-3-fluoronaphthalen-2-ol diformate] belongs 8770 nM. For `CN(C)C1CN(c2nc(N3C[C@H]4C[C@@H]3CN4)c3cc(Cl)c(-c4cc(O)cc5ccccc45)c(F)c3n2)C1` (single isomer, unassigned) [Compound 3a, (R or S)-4-(4-((1R,4R)-2,5-diazabicyclo [2.2.1]heptan-2-yl)-6-chloro-2-(3-(dimethylamino)azetidin-1-yl)-8-fluoro-quinazolin-7-yl)naphthalen-2-ol] the value was 1360 nM.
